Patent US12691070B2, “Cationic lipids and preparation method thereof” (RiboX Therapeutics HK Limited, priority 2023, dated 2026)

Assays:
[1] = LNP size and polydispersity index (PDI) by dynamic light scattering; assay type: physicochemical; conditions: for Size: in nm (unit assumed)
Outline: (§1)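 LNPs of ionizable lipid/DSPC/cholesterol/DMG-PEG 2000 (50:10:38.5:1.5) made by microfluidic mixing of luciferase circRNA or mRNA in pH 4.5 acetate with lipids in ethanol (3:1, 12 ml/min), ionizable lipid:nucleotide 15 or 6, then dialyzed against PBS. Size, PDI (DLS) and zeta potential on Zetasizer; encapsulation by Ribogreen ± Triton X-100.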

[2] = LNP zeta potential (Zetasizer); assay type: physicochemical
Outline: as §1

[3] = RNA encapsulation efficacy by Quant-IT Ribogreen kit; assay type: physicochemical
Outline: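 Encapsulation efficacy came from Ribogreen fluorescence of LNPs compared with Triton X-100-lysed LNPs. The particles carried luciferase-encoding circular or linear RNA at an ionizable lipid:ribonucleotide ratio of 15 or 6.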

[4] = tested on: Hep G2 cells; assay: In vitro expression of firefly-luciferase, Hep G2; assay type: cell-based
Outline: (§2)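 Transfection used 100 ng/mL luciferase-encoding RNA-LNPs; activity in lysates was determined at 72 h.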

[5] = tested on: RAW 264.7 cells; assay: In vitro expression of firefly-luciferase, RAW 264.7; assay type: cell-based; conditions: mRNA (SEQ ID NO: 2) LNP, 100 ng/mL, 72 hours post transfection, luciferase activity
Outline: as §2

[6] = tested on: Hep G2 cells; assay: In vitro toxicity (CellTiter-Glo cell viability), Hep G2; assay type: cell-based; conditions: mRNA (SEQ ID NO: 2) LNP, 1 μg/mL, 72 hours post transfection;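 note: percent of untreated cells luminescence signal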
Outline: (§3)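 First, cells receive RNA-LNPs at 1 μg/mL by transfection. After 72 hours, CellTiter-Glo reagent is added per kit protocol. Luminescence is then read and converted to cell viability.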

[7] = tested on: RAW 264.7 cells; assay: In vitro toxicity (CellTiter-Glo cell viability), RAW 264.7; assay type: cell-based; conditions: mRNA (SEQ ID NO: 2) LNP, 1 μg/mL, 72 hours post transfection;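 note: percent of untreated cells luminescence signal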
Outline: as §3

[8] = tested on: BALB/C mice; assay: In vivo expression, whole-body luminescence (IVIS); conditions: mRNA (SEQ ID NO: 2) LNP, 0.05 mg*kg-1 intravenous, 6 hours post injection
Procedure: 6-8 week old, female BALB/C mice were injected with 0.05 mg*kg-1 of RNA-LNPs encoding for firefly-luciferase by intravenous injection. At 6 hours post injection, animals were intraperitoneally injected with 15 mg/ml of Luciferin substrate and whole-body luminescence was determined by a bioluminescent in vivo imaging system (IVIS).

[9] = Long term stability analysis / stability under LNP synthesis conditions (Ethanol and PBS pH=7.4); assay type: physicochemical; conditions: after incorporation into lipid nanoparticles / LNP synthesis conditions
Procedure: The purity of the lipids was tested, after they were incorporated into lipid nanoparticles, only to find that the Reference Lipids were cleaved under LNP synthesis conditions, either via transesterification or hydrolysis.

PDI ([1]; LNP with cirRNA (SEQ ID NO: 1)): 0.1152
Size ([1]; LNP with cirRNA (SEQ ID NO: 1)): 118.3
PDI ([1]; LNP with mRNA (SEQ ID NO: 2)): 0.08023
Size ([1]; LNP with mRNA (SEQ ID NO: 2)): 139.5
Zeta (mV) ([2]; LNP with cirRNA (SEQ ID NO: 1)): −1.304 mV
Zeta (mV) ([2]; LNP with mRNA (SEQ ID NO: 2)): 8.776 mV
Encapsulation Efficiency % ([3]; LNP with cirRNA (SEQ ID NO: 1)): 74%
Encapsulation Efficiency ([3]; LNP with mRNA (SEQ ID NO: 2)): 84.38%
Stability of the lipid (cleavage, hydrolysis) [9]: extensive hydrolysis of the ester moiety
Compound: CCCCC/C=C\CCOC(=O)CCCCCCCN(CCCCCCCC(=O)OCC/C=C\CCCCC)CCOC(=O)CCCN(C)C [Lipid C, reference compound]
In vitro Expression HepG2 ([4]; cirRNA (SEQ ID NO: 1) LNPs, firefly-luciferase luminescence, Hep G2 cells): 8.20E+02
In vitro Expression HepG2 ([4]; mRNA (SEQ ID NO: 2) LNP, 100 ng/mL, 72 hours post transfection, luciferase activity): 1.03E+04
In vitro Expression RAW [5]: 4.63E+05
In vitro Viability HepG2 [6]: 103%
In vitro Viability RAW [7]: 88%
In vivo Expression (Whole Body) [8]: 4.72E+05
